These are literature values, as cited in patent US10499664B2, “Fish feed formulation of Hypericum perforatum, Rosamarinus officianalis or a mixture thereof” (UNIVERSIDAD DE SANTIAGO DE CHILE, priority 2015, dated 2019).

Test systems include COX-2; IL-1β; TNF-α.
Conditions in all cases: pre-treatment, inflamed mouse ears

Turning to `CC(C)c1cc2c(c(O)c1O)[C@@]1(C(=O)O)CCCC(C)(C)[C@@H]1CC2` [carnosic acid], the COX-2 inhibition result with COX-2 is given as “selectively inhibiting”. The IL-1β gene expression result in the data set with IL-1β is “reducing their expression”. Also, the TNF-α gene expression entry with TNF-α was “reducing their expression”.

Turning to `CC(C)c1cc2c(c(O)c1O)[C@@]13CCCC(C)(C)[C@@H]1C[C@@H]2OC3=O` [carnosol], in the data set on COX-2, the COX-2 inhibition result is “selectively inhibiting”. Also, the IL-1β gene expression result with IL-1β was “reducing their expression”. Also, the TNF-α gene expression entry in the data set on TNF-α is “reducing their expression”.
